The text below walks through data of ChEMBL document CHEMBL5303573, “Mapping human microbiome drug metabolism by gut bacteria and their genes” (Nature, 2019).

Series [1] can be described thus: The drug is tested on Enterococcus faecalis strain: V583 for biotransformation. The drug concentrations were measured before and after a 12-h incubation by liquid-chromatography-coupled mass spectrometry (LC–MS). As to conditions: 2 µM.
The nature of series [2]: The drug is tested on Clostridium symbiosum strain: ATCC14940 for biotransformation. The drug concentrations were measured before and after a 12-h incubation by liquid-chromatography-coupled mass spectrometry (LC–MS). The conditions noted are these: 2 µM.
The conditions of series [3]: segatella copri, 12 h, 2 µM.
Description: The drug is tested on Prevotella copri strain: DSM18205 for biotransformation. The drug concentrations were measured before and after a 12-h incubation by liquid-chromatography-coupled mass spectrometry (LC–MS)
Series [4] is described as follows: The drug is tested on Collinsella aerofaciens strain: ATCC25986 for biotransformation. The drug concentrations were measured before and after a 12-h incubation by liquid-chromatography-coupled mass spectrometry (LC–MS). The conditions noted are these: 2 µM.
A short description of series [5]: The drug is tested on Escherichia coli strain: BW25113 for biotransformation. The drug concentrations were measured before and after a 12-h incubation by liquid-chromatography-coupled mass spectrometry (LC–MS). As to conditions: 2 µM.
Series [6] can be described thus: The drug is tested on Bacteroides finegoldii strain: DSM17565 for biotransformation. The drug concentrations were measured before and after a 12-h incubation by liquid-chromatography-coupled mass spectrometry (LC–MS). As to conditions: 2 µM.
The nature of series [7]: The drug is tested on Bacteroides cellulosilyticus strain: DSM14838 for biotransformation. The drug concentrations were measured before and after a 12-h incubation by liquid-chromatography-coupled mass spectrometry (LC–MS). The conditions noted are these: 2 µM.
Series [8] in a line: The drug is tested on Bacteroides caccae strain: ATCC43185 for biotransformation. The drug concentrations were measured before and after a 12-h incubation by liquid-chromatography-coupled mass spectrometry (LC–MS). As to conditions: 2 µM.
Series [9] is described as follows: The drug is tested on Clostridium asparagiforme strain: DSM15981 for biotransformation. The drug concentrations were measured before and after a 12-h incubation by liquid-chromatography-coupled mass spectrometry (LC–MS). The series is classed as ADME. On the set-up: dose 2 uM, timepoint 0 vs 12 hours. As to conditions: enterocloster asparagiformis, 2 µM.
The nature of series [10]: The drug is tested on Bacteroides uniformis strain: ATCC8492 for biotransformation. The drug concentrations were measured before and after a 12-h incubation by liquid-chromatography-coupled mass spectrometry (LC–MS). As to conditions: 2 µM.
Series [11] in a line: The drug is tested on Alistipes indistinctus strain: DSM22520 for biotransformation. The drug concentrations were measured before and after a 12-h incubation by liquid-chromatography-coupled mass spectrometry (LC–MS). As to conditions: 2 µM.
A short description of series [12]: The drug is tested on Bifidobacterium ruminantium strain: fecal isolate for biotransformation. The drug concentrations were measured before and after a 12-h incubation by liquid-chromatography-coupled mass spectrometry (LC–MS). The conditions noted are these: 2 µM.
For series [13] the following is noted: parabacteroides distasonis, 12 h, 2 µM.
Description: The drug is tested on Parabacteroides distasonis strain: ATCC8503 for biotransformation. The drug concentrations were measured before and after a 12-h incubation by liquid-chromatography-coupled mass spectrometry (LC–MS)
For series [14] the following is noted: parabacteroides johnsonii, 12 h, 2 µM.
Description: The drug is tested on Parabacteroides johnsonii strain: DSM18315 for biotransformation. The drug concentrations were measured before and after a 12-h incubation by liquid-chromatography-coupled mass spectrometry (LC–MS)
Series [15] in a line: The drug is tested on Eubacterium rectale strain: ATCC33656 for biotransformation. The drug concentrations were measured before and after a 12-h incubation by liquid-chromatography-coupled mass spectrometry (LC–MS). The conditions noted are these: agathobacter rectalis, 2 µM.
For series [16] the following is noted: bacteroides thetaiotaomicron, 12 h, 2 µM.
Description: The drug is tested on Bacteroides thetaiotaomicron strain: 7330 for biotransformation. The drug concentrations were measured before and after a 12-h incubation by liquid-chromatography-coupled mass spectrometry (LC–MS)
Series [17] can be described thus: The drug is tested on Clostridium sp. strain: fecal isolate for biotransformation. The drug concentrations were measured before and after a 12-h incubation by liquid-chromatography-coupled mass spectrometry (LC–MS). As to conditions: 2 µM.
For series [18] the following is noted: bacteroides eggerthii, 12 h, 2 µM.
Description: The drug is tested on Bacteroides eggerthii strain: DSM20697 for biotransformation. The drug concentrations were measured before and after a 12-h incubation by liquid-chromatography-coupled mass spectrometry (LC–MS)
Series [19] is described as follows: The drug is tested on Odoribacter splanchnicus strain: fecal isolate for biotransformation. The drug concentrations were measured before and after a 12-h incubation by liquid-chromatography-coupled mass spectrometry (LC–MS). The conditions noted are these: 2 µM.
Series [20] in a line: The drug is tested on Clostridium scindens strain: ATCC35704 for biotransformation. The drug concentrations were measured before and after a 12-h incubation by liquid-chromatography-coupled mass spectrometry (LC–MS). As to conditions: 2 µM.

Regarding `Cc1nc(Nc2ncc(C(=O)Nc3c(C)cccc3Cl)s2)cc(N2CCN(CCO)CC2)n1.O` [DASATINIB], the “Bacterial Biotransformation” value is given as “Compound NOT metabolized” in series [1]; “Compound NOT metabolized” in [2]; “Compound metabolized” in series [3]; “Compound NOT metabolized” in series [4]; “Compound NOT metabolized” in series [5]; “Compound metabolized” in series [6]. Moreover, the “Bacterial Biotransformation” value is on record as “Compound NOT metabolized” in series [7]; “Compound NOT metabolized” in series [8]; “Compound NOT metabolized” in series [9]; “Compound NOT metabolized” in series [10]; “Compound NOT metabolized” in [11]; “Compound metabolized” in [12]. Further, the “Bacterial Biotransformation” value in series [13] is recorded as “Compound metabolized”; in [14], “Compound metabolized”; in series [15], “Compound NOT metabolized”; in [16], “Compound NOT metabolized”; in [17], “Compound metabolized”; in series [18], “Compound NOT metabolized”. Moreover, the “Bacterial Biotransformation” value is given as “Compound NOT metabolized” in [19] and “Compound metabolized” in [20].
As for `CC(=O)OCC(=O)[C@@]1(OC(C)=O)[C@@H](C)C[C@H]2[C@@H]3C[C@H](F)C4=CC(=O)C=C[C@]4(C)[C@@]3(F)[C@@H](O)C[C@@]21C` [DIFLORASONE DIACETATE], the “Bacterial Biotransformation” value in [1] is “Compound NOT metabolized”; in series [2] it was “Compound metabolized”; in series [3] it was “Compound metabolized”; in series [4], “Compound metabolized”; in series [5], “Compound metabolized”; in series [6], “Compound metabolized”. Besides, the “Bacterial Biotransformation” value in [7], in series [8], in series [9], in series [10], in [11] and in [12] was “Compound metabolized” in each case. Besides, the “Bacterial Biotransformation” value is “Compound metabolized” in [13]; “Compound metabolized” in series [14]; “Compound NOT metabolized” in series [15]; “Compound metabolized” in [16]; “Compound metabolized” in series [17]; “Compound metabolized” in series [18]. Also, the “Bacterial Biotransformation” value is listed as “Compound metabolized” in series [19] and “Compound NOT metabolized” in series [20].
With `COc1ccc([C@@H]2Sc3ccccc3N(CCN(C)C)C(=O)[C@@H]2OC(C)=O)cc1` [DILTIAZEM], the “Bacterial Biotransformation” value in series [1] was “Compound NOT metabolized”; in series [2] it was “Compound metabolized”; in [3], “Compound NOT metabolized”; in [4], “Compound metabolized”; in series [5] it was “Compound NOT metabolized”; in [6], “Compound metabolized”. The “Bacterial Biotransformation” value in series [7] was “Compound metabolized”; in [8], “Compound metabolized”; in [9], “Compound NOT metabolized”; in series [10], “Compound metabolized”; in series [11], “Compound metabolized”; in series [12] it was “Compound NOT metabolized”. Besides, the “Bacterial Biotransformation” value was “Compound metabolized” in [13]; “Compound metabolized” in [14]; “Compound NOT metabolized” in series [15]; “Compound metabolized” in series [16]; “Compound metabolized” in series [17]; “Compound NOT metabolized” in [18]. Moreover, the “Bacterial Biotransformation” value in [19] and in series [20] was “Compound NOT metabolized” each time.
Consider `O=c1[nH]c2ccccc2n1CCCN1CCC(n2c(=O)[nH]c3cc(Cl)ccc32)CC1` [DOMPERIDONE], for which the “Bacterial Biotransformation” value in series [1], in series [2], in series [3], in [4], in [5] and in [6] was “Compound NOT metabolized” in each case. For the same compound, the “Bacterial Biotransformation” value in series [7], in series [8], in series [9], in [10], in series [11] and in series [12] was “Compound NOT metabolized” each time. For the same compound, the “Bacterial Biotransformation” value in [13], in series [14], in series [15], in series [16], in [17] and in series [18] was “Compound NOT metabolized” in each case. In addition, in [19], the “Bacterial Biotransformation” value was “Compound NOT metabolized”.
As for `C#C[C@]1(O)CC[C@H]2[C@@H]3CCC4=CC(=O)CC[C@@H]4[C@H]3CC[C@@]21CC` [LEVONORGESTREL], the “Bacterial Biotransformation” value in [2] was “Compound NOT metabolized”; in series [3], “Compound NOT metabolized”; in series [4], “Compound NOT metabolized”; in [5], “Compound NOT metabolized”; in series [6] it was “Compound NOT metabolized”; in [7] it was “Compound metabolized”. Besides, the “Bacterial Biotransformation” value in series [8] is “Compound metabolized”; in series [9] it was “Compound NOT metabolized”; in series [10] it was “Compound metabolized”; in series [11], “Compound NOT metabolized”; in series [12], “Compound NOT metabolized”; in series [13], “Compound metabolized”. Besides, the “Bacterial Biotransformation” value in series [14] was “Compound metabolized”; in series [15], “Compound NOT metabolized”; in series [16], “Compound metabolized”; in series [17], “Compound metabolized”; in series [18] it was “Compound NOT metabolized”; in series [19], “Compound metabolized”. The “Bacterial Biotransformation” value in series [20] was “Compound NOT metabolized”.
Consider `CC(=O)O[C@]1(C(C)=O)CC[C@H]2[C@@H]3C=C(C)C4=CC(=O)CC[C@]4(C)[C@H]3CC[C@@]21C` [MEGESTROL ACETATE], for which the “Bacterial Biotransformation” value in [1] is on record as “Compound NOT metabolized”; in [2] it was “Compound NOT metabolized”; in series [3], “Compound NOT metabolized”; in series [4], “Compound metabolized”; in series [5] it was “Compound metabolized”; in series [6], “Compound NOT metabolized”. Moreover, the “Bacterial Biotransformation” value is listed as “Compound NOT metabolized” in series [7]; “Compound NOT metabolized” in series [9]; “Compound metabolized” in [10]; “Compound metabolized” in [11]; “Compound metabolized” in [12]; “Compound metabolized” in series [13]. Moreover, the “Bacterial Biotransformation” value in [14] is recorded as “Compound metabolized”; in series [15] it was “Compound NOT metabolized”; in series [16], “Compound metabolized”; in [17], “Compound metabolized”; in series [18], “Compound metabolized”; in series [19] it was “Compound metabolized”. In series [20], the “Bacterial Biotransformation” value is given as “Compound metabolized”.
